The source of these data is US10052311B2, “PPAR compounds for use in the treatment of fibrotic diseases” (INVENTIVA, priority 2014, dated 2018).

One experiment deals with T1, human PPARα (Homo sapiens, UniProt Q07869).
T1 sequence (Q07869 200-468 limits assumed): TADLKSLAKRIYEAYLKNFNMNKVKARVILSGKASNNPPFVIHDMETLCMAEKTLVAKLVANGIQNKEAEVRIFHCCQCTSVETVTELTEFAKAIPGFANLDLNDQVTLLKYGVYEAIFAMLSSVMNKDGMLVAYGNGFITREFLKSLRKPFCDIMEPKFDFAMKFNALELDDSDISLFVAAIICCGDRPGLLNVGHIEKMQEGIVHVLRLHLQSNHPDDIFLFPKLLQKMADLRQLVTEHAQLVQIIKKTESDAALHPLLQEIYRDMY
In words: Transient transactivation assay, Cos-7 cells, chimeric PPARα-Gal4, luciferase reporter. It is filed as cell-based. Particulars: Gal4 chimera, mean of 6 experiments. The protocol:
(§1) Transfections were performed by a chemical agent (Jet PEI).
For orientation: In a reporter assay the amount or activity of a reporter protein is the signal.

Another experiment concerns the target T2, mouse PPARα (Mus musculus, UniProt P23204).
T2 sequence (P23204 200-468 limits assumed): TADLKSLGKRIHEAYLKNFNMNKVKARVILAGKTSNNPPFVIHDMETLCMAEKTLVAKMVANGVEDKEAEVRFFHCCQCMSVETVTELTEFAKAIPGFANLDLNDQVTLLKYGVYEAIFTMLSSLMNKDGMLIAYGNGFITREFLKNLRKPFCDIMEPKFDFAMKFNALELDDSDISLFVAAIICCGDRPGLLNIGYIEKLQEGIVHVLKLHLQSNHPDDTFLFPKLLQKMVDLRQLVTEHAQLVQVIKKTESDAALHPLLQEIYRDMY
The experiment is described as above. It is filed as cell-based. Particulars: Gal4 chimera, mean of 6 experiments. The procedure: as §1

In experiment [1] the test system is primary human dermal fibroblasts. Description: TGFβ-induced fibroblasts to myofibroblasts transition (FMT), α-SMA immunocytochemistry. It is filed as cell-based. Particulars: Fibroblast, α-SMA-positive cells, 48 h, NC: not converged. The protocol: (§2) The ability of compound A to inhibit TGFβ-induced lung and dermal fibroblasts to myofibroblasts transition (FMT) was determined by performing immunocytochemistry assays for the myofibroblast marker, α-smooth muscle actin (α-SMA). These assays were carried out using primary human lung or skin fibroblasts (Promocell). The cells were plated in 96-well plates in full growth medium for 24 h, followed by 24 h starvation in serum-free medium. The medium was then replaced by fresh medium containing TGFβ and compound A to be tested (at concentrations ranging from 10^−4 M to 4.5 10^−8 M) for another 48 h. The culture medium was then removed, the cells were fixed with formaldehyde and stained with a primary mouse α-SMA antibody (Sigma) and secondary fluorescence-labelled goat-anti-mouse antibody (Invitrogen). α-SMA expression was quantified using Meta Xpress software. […] Results were expressed as % of α-SMA-positive cells out of the total cell number. The data was normalised to the TGFβ treatment alone, which was taken as 100%. The results present the mean of biological triplicates. Dose-effect curves and IC50 values were calculated using the GraphPad Prism software.

For experiment [2], the system named is primary human lung fibroblasts. The description is as above. Format: cell-based. Particulars: Fibroblast, α-SMA-positive cells, 48 h, NC: not converged. The protocol:
as §2

In the next experiment the test system is bleomycin-exposed mice. In words: Bleomycin-induced skin fibrosis in mice. It is filed as in vivo, mouse. Conditions: vs vehicle. The procedure:
The experiments were carried out on 6-week-old male C56BL/6 mice (Janvier, Le Genest-Saint-Isle, France).
0.9% NaCl was used as control (100 μL subcutaneous injections).
On day 21, mice were sacrificed by cervical dislocation, and skin samples were taken and processed for analysis.
Lesional skin areas were excised, fixed in 4% formalin and embedded in paraffin. Five μm thick sections were stained with haematoxylin and eosin. The dermal thickness was analyzed at 100-fold magnification by measuring the distance between the epidermal-dermal junction and the dermal-subcutaneous fat junction at four sites from lesional skin of each mouse. Two independent examiners performed the evaluation before a consensus in case of more of 10% of variability of the measures.
The collagen content in lesional skin samples was explored by hydroxyproline assay. After digestion of punch biopsies (ø3 mm) in 6M HCl for three hours at 120° C., the pH of the samples was adjusted to 7 with 6M NaOH. Afterwards, samples were mixed with 0.06 M chloramine T and incubated for 20 min at room temperature. […] The absorbance was determined at 557 nm with a Spectra MAX 190 microplate spectrophotometer (Molecular Devices, Sunnyvale, Calif., USA).
Total soluble collagen in cell culture supernatants was quantified using a Sircol collagen assay (Biocolor). Briefly, cell culture supernatant was mixed with sirius red dye for 30 minutes at room temperature. After centrifugation, the pellet was dissolved in alkali reagent. Measurement was performed using a SpectraMax 190 microplate spectrophotometer (Molecular Devices) at a wavelength of 540 nm.
Data were expressed as mean±standard error of the mean. The Student t-test was used for statistical analyses. A p value of less than 0.05 was considered as a statistically significant result.

The subject of experiment [3] is primary human dermal fibroblasts. In words: PDGF-induced proliferation, EdU incorporation assay. Conditions: Fibroblast, 24 h, NC: not converged. It is filed as cell-based. The protocol:
(§3) The ability of compound A to inhibit PDGF-induced lung and dermal fibroblasts proliferation was determined by performing EdU (5-ethynyl-2′-deoxyuridine) incorporation assays. These assays were carried out using primary human lung or skin fibroblasts (Promocell). The cells were plated in 96-well plates in full growth medium for 24 h, followed by 24 h starvation in serum-free medium. The medium was then replaced by fresh medium containing PDGF and compound A to be tested (at concentrations ranging from 10^−4 M to 4.5 10^−8 M) for another 24 h. EdU was added to the cells for the last 16 h of the compound treatment. The culture medium was then removed, the cells were fixed with formaldehyde and the EdU incorporated in the DNA of diving cells was quantified using fluorescent Click-it assay according to the manufacturer's instructions (Invitrogen). […] Results were expressed as % of EdU-positive cells out of the total cell number. The results present the mean of biological triplicates. Dose-effect curves and IC50 values were calculated using the GraphPad Prism software.

The test system of experiment [4] is primary human lung fibroblasts. Described as above. Format: cell-based. Particulars: Fibroblast, 24 h, NC: not converged. The procedure: as §3
For the next experiment, the target named is human PPARγ (Homo sapiens, UniProt P37231). Description: cell-based.
Another experiment deals with T3, mouse PPARδ (Mus musculus, UniProt P35396).
T3 sequence (P35396 210-440 limits assumed): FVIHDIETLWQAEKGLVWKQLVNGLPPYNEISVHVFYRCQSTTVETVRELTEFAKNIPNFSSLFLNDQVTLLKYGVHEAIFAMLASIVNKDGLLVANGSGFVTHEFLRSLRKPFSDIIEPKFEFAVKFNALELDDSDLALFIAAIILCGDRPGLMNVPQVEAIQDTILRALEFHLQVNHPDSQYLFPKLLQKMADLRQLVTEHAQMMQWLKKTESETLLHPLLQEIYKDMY
Description: Transient transactivation assay, Cos-7 cells, chimeric PPARδ-Gal4, luciferase reporter. Particulars: Gal4 chimera, mean of 5 experiments, estimated (plateau not reached). It is filed as cell-based. The protocol: as §1

Structures are written as SMILES.

Chain of human PPARγ (P37231 238-505 limits assumed): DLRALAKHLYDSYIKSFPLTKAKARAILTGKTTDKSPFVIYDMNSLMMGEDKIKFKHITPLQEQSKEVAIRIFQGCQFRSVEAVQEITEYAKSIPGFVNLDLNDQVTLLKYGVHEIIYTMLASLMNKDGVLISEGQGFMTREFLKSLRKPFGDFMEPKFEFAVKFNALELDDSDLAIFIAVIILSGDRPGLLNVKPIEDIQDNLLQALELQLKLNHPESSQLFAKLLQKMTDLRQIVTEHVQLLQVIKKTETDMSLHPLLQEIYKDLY

In the case of `O=C(O)CCCc1cc2cc(Cl)ccc2n1S(=O)(=O)c1ccc2ncsc2c1` [compound A, 5-Chloro-1-[(6-benzothiazolyl)sulfonyl]-1H-indole-2-butanoic acid], the EC50 (as a rule, the concentration that produces a half-maximal response) on human PPARα is 0.92 µM; on mouse PPARα, 0.29 µM; on human PPARγ, 0.18 µM; on mouse PPARδ it was 2 µM. Also, the IC50 (commonly the concentration at which inhibition is half-maximal) in [1] is about 11.2 µM; in experiment [2], 10.8 µM; in [3] it was 11.5 µM; in experiment [4], 10.9 µM. The “collagen content (skin)” value in the experiment on bleomycin-exposed mice (30 mg/kg po 21 days) and in the experiment with bleomycin-exposed mice (100 mg/kg po 21 days) was “significantly reduced the collagen content” in each case. For the same compound, the dermal thickness entry in the experiment with bleomycin-exposed mice (30 mg/kg po 21 days) is given as “significantly reduced dermal thickness”; in the experiment with bleomycin-exposed mice (100 mg/kg po 21 days), “more significantly reduced dermal thickness”. Besides, the “hydroxyproline content in lesioned skin” value in the experiment with bleomycin-exposed mice (30 mg/kg po 21 days) and with bleomycin-exposed mice (100 mg/kg po 21 days) was “significantly lower” in each case.
